From US20210277009A1, “PRMT5 INHIBITORS” (Merck Sharp & Dohme Corp., priority 2018, published 2021)
Where two headings read alike, the source gives them in different places.

Assays:
[1] = target: T1, PRMT5-MEP50 enzyme complex (Homo sapiens, UniProt O14744); test: PRMT5-MEP50 Enzyme Methylation Assay; type: biochemical
T1 construct: 1.25 nM of Full-length (FL)-PRMT5-MEP50 enzyme complex; made in house; host or cells: baculovirus-transfected Sf21 cells
Description: PRMT5-MEP50 biochemical assay is a direct measurement of the methylation activity of the enzyme complex on a short peptide substrate derived from the N-terminus of H4 histone. Methylation experiment is performed with recombinant PRMT5-MEP50 protein complex. The assessment of inhibitory effect of small molecules is measured by tire effectiveness of the compounds to inhibit tins reaction (EC50).
In this assay, the potency (EC50) of each compound was determined from a twenty-point (1:2 serial dilution; top compound concentration of 100000 nM) titration curve using the following outlined procedure. To each well of a white ProxiPlus 384 well-plate, 100 nL of compound (1% DMSO in final assay volume of 10 μL) was dispensed, followed by the addition of 8 μL of 1× assay buffer (50 mM Bicine pH 8.0, 1 mM DTT, 0.004% Tween20, 0.01% BSA) containing 1.25 nM of Full-length (FL)-PRMT5-MEP50 enzyme complex (recombinant proteins from baculovirus-transfected Sf21 cells: FL-PRMT5; MW=[…] and FL-MEP50; MW=38614) and 1 μL of 150 μM S-(5′-Adenosyl)-L-Methionine Chloride (SAM). Plates were sealed and placed in a 37° C. humidified chamber for a 60 minutes pre-incubation with compound. Subsequently, each reaction was initiated by the addition of 1 μL 1× assay buffer containing 750 nM biotinylated H4R3(Mel) peptide. The final reaction in each well of 10 μL consists of 1.0 nM PRMT5-MEP50, 75 nM biotinylated-peptide, and […] SAM. Methylation reactions were allowed to proceed for 150 minutes in a sealed plate at 37° C. Reactions were immediately quenched by the addition of 1 μL of 5% formic acid. Plates were then frozen and shipped to SAMDITM Tech Inc. to determine the percent conversion from H4R3(Mel) to H4R3(Me2). Dose-response curves were generated by plotting percent effect (% product conversion; Y-axis) vs. Log 10 compound concentrations (X-axis). EC50 values were determined by non-linear regression according to models for either sigmoidal (4 parameters) or biphasic (7 parameters) dose-response curves.

[2] = system: symmetric dimethylation of arginine (SDMA) of PRMT5 substrates in MCF-7 cells; test: PRMT5 Cell Target Engagement (TE) Assay; type: cell-based; conditions: treated for 3 days, nuclear SDMA by high content imaging, top concentration 10000 nM
Source text: The PRMT5 TE assay is a biomarker assay for identifying compounds that inhibit symmetric dimethylation of arginine (SDMA) of PRMT5 substrates. The following substrates have been reported for PRMT5: histone H2A and H4 R3, Histone H3 R2, Histone H3 R8, spliceosome Sm proteins, ribosomal protein RPS10, p53, FEN1, nudeoplasmin, nucleolin, EGFR and EBNA. The assay will focus on detecting symmetrically dimethylated nuclear proteins using high content imaging technology. Detection of the expression of symmetrically dimethylated nuclear proteins is through a mixture of primary rabbit monoclonal antibodies to SDMA (CST 13222), which in turn recognized by an Alexafluor 488 dye-conjugated anti-rabbit IgG secondary antibody. The IN Cell Analyzer 2200 or Opera-Phenix measures nuclear Alexafluor 488 fluorescent dye intensity that is directly related to the level of expression of symmetrically dimethylated nuclear proteins at the single cell level. Nuclear AF488 dye intensities are compared to the mean value for DMSO treated cells (MIN) to report percent of inhibition for each compound-treated well.
In this assay, the cell potency (EC50) of each compound was determined from a ten point (1:3 serial dilution; top compound concentration of 10000 nM) titration curve using the following outlined procedure. Each well of a BD falcon collagen coated black/clear bottom 384-well plate was seeded with 4000 MCF-7 cells in 30 μl media and allowed to attach for 5 h. Media is ATCC-formulated Eagle's Minimum Essential Medium, Catalog No. 30-2003. To make the complete growth medium, the following components were added to the base medium: 0.01 mg/ml human recombinant insulin; fetal bovine serum to a final concentration of 10%. Additional 30 μl of media containing 2× compounds were added to each well. Cells were treated for 3 days in 37° C. CO2 incubator. On day 3, cells were fixed with Cytofix, permeablized with 0.4% Triton-X-100/Cytofix, and washed with D-PBS without Ca/Mg. Cells were blocked with Licor Odessey blocking reagent for 1 h at room temperature, followed by incubation with anti-SDMA (1:1000) antibody at 4° C. overnight. 1° antibody was removed, followed by three washings with DPBS without Ca/Mg and 0.05% Tween20. Hoechst (5 μg/ml), Cell Mask deep stain (1:2000) and Alexa488-conjugated goat anti-rabbit IgG (2 μg/mL) was added for 1 hour at room temperature. A final washing step (three washes) was performed before sealing plate for imaging on In Cell Analyzer 2200 or Opera-Phenix. Images from analyzer were uploaded to Columbus (at WP or BOS) for image analysis. IC50 values were determined by 4 parameters robust fit of percent fluorescence units vs. (Logic) compound concentrations.

[3] = single EC50 from 4 parameters single site sigmoidal model, or first EC50 of 7 parameters biphasic model, 1.0 nM PRMT5-MEP50, H4R3(Me1) peptide, SAM, read-out: Enzyme Methylation Assay (EC50 or EC50_1)
[4] = second EC50 of 7 parameters biphasic model, read-out: Enzyme Methylation Assay (EC50_2)

T1 sequence (O14744 whole entry): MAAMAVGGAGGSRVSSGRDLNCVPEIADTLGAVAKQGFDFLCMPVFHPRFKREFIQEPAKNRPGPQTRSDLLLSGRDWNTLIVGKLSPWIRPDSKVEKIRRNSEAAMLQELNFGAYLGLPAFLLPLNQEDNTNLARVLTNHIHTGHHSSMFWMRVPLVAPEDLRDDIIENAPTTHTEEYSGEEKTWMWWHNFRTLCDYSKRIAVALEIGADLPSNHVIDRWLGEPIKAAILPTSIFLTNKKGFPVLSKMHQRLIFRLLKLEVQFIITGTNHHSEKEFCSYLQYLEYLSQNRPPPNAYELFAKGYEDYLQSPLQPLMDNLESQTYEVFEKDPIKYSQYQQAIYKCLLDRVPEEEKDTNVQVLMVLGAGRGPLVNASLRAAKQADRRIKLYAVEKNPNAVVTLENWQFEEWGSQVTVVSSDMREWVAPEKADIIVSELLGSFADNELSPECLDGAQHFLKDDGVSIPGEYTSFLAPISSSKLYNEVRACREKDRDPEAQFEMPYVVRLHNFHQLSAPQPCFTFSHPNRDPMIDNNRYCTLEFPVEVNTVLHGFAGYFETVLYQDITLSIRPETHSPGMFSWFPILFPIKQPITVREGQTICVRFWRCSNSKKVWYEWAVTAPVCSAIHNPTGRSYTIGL
T1 sequence (Q9BQA1 whole entry partner): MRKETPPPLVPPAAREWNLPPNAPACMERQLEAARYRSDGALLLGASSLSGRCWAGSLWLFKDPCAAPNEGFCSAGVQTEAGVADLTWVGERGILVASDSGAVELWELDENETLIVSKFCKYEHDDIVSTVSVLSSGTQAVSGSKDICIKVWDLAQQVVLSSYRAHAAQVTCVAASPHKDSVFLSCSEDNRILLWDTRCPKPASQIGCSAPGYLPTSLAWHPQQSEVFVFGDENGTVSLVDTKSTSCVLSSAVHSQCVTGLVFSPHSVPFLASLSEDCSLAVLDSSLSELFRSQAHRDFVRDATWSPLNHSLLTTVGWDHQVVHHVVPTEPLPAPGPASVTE

## CNc1ncnc2c1ccn2[C@@H]1S[C@](C)(CCc2ccc3cc(Br)c(N)nc3c2)[C@@H](O)[C@H]1O [Example 33, (2R,3S,4R,5R)-2-(2-(2-amino-3-bromoquinolin-7-yl)ethyl)-2-methyl-5-(4-(methylamino)-7H-pyrrolo[2,3-d]pyrimidin-7-yl)tetrahydrothiophene-3,4-diol]
[1]; [3]
  EC50: 0.8 nM
[2]; Homo sapiens, MCF7, 72 h
  EC50: 13.5 nM

## Cc1ncnc2c1ccn2[C@@H]1S[C@H](CCc2ccc3ccc(NCC(F)F)nc3c2)[C@@H](O)[C@H]1O [Example 26, (2R,3S,4R,5R)-2-(2-{2-[(2,2-difluoroethyl)amino]quinolin-7-yl}ethyl)-5-(4-methyl-7H-pyrrolo[2,3-d]pyrimidin-7-yl)tetrahydrothiophene-3,4-diol]
[1]; [3]
  EC50: 59.6 nM
[2]
  EC50: 10.5 nM

## Cc1cc2ccc(CC[C@H]3S[C@@H](n4ccc5c(C)ncnc54)[C@H](O)[C@@H]3O)cc2nc1N (single isomer, unassigned) [Example 28]
[1]; [3]
  EC50: 0.7 nM
[2]; Homo sapiens, MCF7, 72 h
  EC50: 1.4 nM

## CC1(COc2ccc3cc(Br)c(N)nc3c2)SC(n2ccc3c(N)ncnc32)C(O)C1O [Example 7, (2R,3R,4R,5R)-2-(((2-amino-3-bromoquinolin-7-yl)oxy)methyl-5-(4-amino-7H-pyrrolo[2,3-d]pyrimidin-7-yl)-2-methyltetrahydrothiophene-3,4-diol]
[1]; [4]
  EC50: 531 nM
[1]; [3]
  EC50: 2.5 nM
[2]; Homo sapiens, MCF7, 72 h
  EC50: 122 nM

## Cc1ncnc2c1ccn2[C@@H]1S[C@H](COc2ccc3ccc(NCC4CC4)nc3c2)[C@@H](O)[C@H]1O [Example 9, (2R,3S,4R,5R)-2-(((2-((cyclopropylmethyl)amino)quinolin-7-yl)oxy)methyl)-5-(4-methyl-7H-pyrrolo[2,3-d]pyrimidin-7-yl)tetrahydrothiophene-3,4-diol]
[1]; [4]
  EC50: 2540 nM
[1]; [3]
  EC50: 14 nM
[2]; Homo sapiens, MCF7, 72 h
  EC50: 58.4 nM

## Nc1nc2cc(OC[C@H]3S[C@@H](n4ccc5c(N)ncnc54)[C@H](O)[C@@H]3O)ccc2cc1Cl [Example 2, 7-[5-O-(2-amino-3-chloroquinolin-7-yl)-4-thio-beta-D-ribofuranosyl]-7H-pyrrolo[2,3-d]pyrimidin-4-amine]
[1]; [4]
  EC50: 200 nM
[1]; [3]
  EC50: 2.2 nM
[2]; Homo sapiens, MCF7, 72 h
  EC50: 112 nM

## CNc1ncnc2c1ccn2[C@@H]1S[C@H](CCc2ccc3cc(Br)c(N)nc3c2)[C@@H](O)[C@H]1O [Example 36]
[1]; [4]
  EC50: 15.3 nM
[1]; [3]
  EC50: 0.6 nM
[2]; Homo sapiens, MCF7, 72 h
  EC50: 81.1 nM

## Cc1ncnc2c1ccn2[C@@H]1S[C@@H](CCc2ccc3cc(F)c(N)nc3c2)[C@@H](O)[C@H]1O [Example 23, (2S,3S,4R,5R)-2-[2-(2-amino-3-fluoroquinolin-7-yl)ethyl]-5-(4-methyl-7H-pyrrolo[2,3-d]pyrimidin-7-yl)tetrahydrothiophene-3,4-diol]
[1]; [3]
  EC50: 58.3 nM
[2]; Homo sapiens, MCF7, 72 h
  EC50: 41.9 nM

## Nc1nc2cc(OC[C@H]3S[C@@H](n4ccc5c(Cl)ncnc54)[C@H](O)[C@@H]3O)ccc2cc1Cl [Example 5]
[1]; [3]
  EC50: 26.2 nM
[2]; Homo sapiens, MCF7, 72 h
  EC50: ≥ 10000 nM

## COc1ncnc2c1ccn2[C@@H]1S[C@H](COc2ccc3ccc(NCC4CC4)nc3c2)[C@@H](O)[C@H]1O [Example 8, (2R,3S,4R,5R)-2-(((2-((cyclopropylmethyl)amino)quinolin-7-yl)oxy)methyl)-5-(4-methoxy-7H-pyrrolo[2,3-d]pyrimidin-7-yl)tetrahydrothiophene-3,4-diol]
[1]; [3]
  EC50: 38300 nM
[2]; Homo sapiens, MCF7, 72 h
  EC50: 3710 nM

## Cc1ncnc2c1ccn2[C@@H]1S[C@H](CCc2ccc3cc(Cl)c(N)nc3c2)[C@@H](O)[C@H]1O [Example 24]
[1]; [3]
  EC50: 1.5 nM
[2]; Homo sapiens, MCF7, 72 h
  EC50: 17.4 nM

## Nc1nc2cc(CC[C@H]3S[C@@H](n4ccc5c(N)ncnc54)[C@H](O)[C@@H]3O)ccc2cc1Cl [Example 43, (2R,3S,4R,5R)-2-(2-(2-amino-3-chloroquinolin-7-yl)ethyl)-5-(4-amino-7H-pyrrolo[2,3-d]pyrimidin-7-yl)tetrahydrothiophene-3,4-diol]
[1]; [3]
  EC50: 0.7 nM
[2]; Homo sapiens, MCF7, 72 h
  EC50: 2.4 nM

## Cc1nc(N)c2ccn([C@@H]3S[C@H](CCc4ccc5cc(Br)c(N)nc5c4)[C@@H](O)[C@H]3O)c2n1 [Example 35, (2R,3R,4S,5R)-2-(4-amino-2-methyl-7H-pyrrolo[2,3-d]pyrimidin-7-yl)-5-(2-(2-amino-3-bromoquinolin-7-yl)ethyl)tetrahydrothiophene-3,4-diol]
[1]; [3]
  EC50: 1.7 nM
[2]; Homo sapiens, MCF7, 72 h
  EC50: 35.6 nM

## Cc1ncnc2c1ccn2[C@@H]1S[C@H](CCc2ccc3cc(C(F)(F)F)c(N)nc3c2)[C@@H](O)[C@H]1O [Example 20, (2R,3S,4R,5R)-2-{2-[2-amino-3-(triflnoromethyl)quinolin-7-yl]ethyl}-5-(4-methyl-7H-pyrrolo[2,3-d]pyrimidin-7-yl)tetrahydrothionhene-3,4-diol]
[1]; [4]
  EC50: 120 nM
[1]; [3]
  EC50: 0.7 nM
[2]; Homo sapiens, MCF7, 72 h
  EC50: 741 nM

## Cc1ncnc2c1ccn2[C@@H]1S[C@@H](CCc2ccc3ccc(N)nc3c2)[C@@H](O)[C@H]1O [Example 16, (2S,3S,4R,5R)-2-[2-(2-aminoquinolin-7-yl)ethyl]-5-(4-methyl-7H-pyrrolo[2,3-d]pyrimidin-7-yl)tetrahydrothiophene-3,4-diol]
[1]; [3]
  EC50: 1.7 nM
[2]; Homo sapiens, MCF7, 72 h
  EC50: 1.6 nM

## Nc1nc2cc(CC[C@H]3S[C@@H](n4ccc5c(N)ncnc54)[C@H](O)[C@@H]3O)ccc2cc1Br [Example 12, (2R,3S,4R,5R)-2-(2-(2amino-3bromoquinolin-7-yl)ethyl)-5-(4-amino-7H-pyrrolo[2,3-d]pyrimidin-7-yl)tetrahydrothiophene-3,4-diol]
[1]; [3]
  EC50: 0.7 nM
[2]; Homo sapiens, MCF7, 72 h
  EC50: 1.3 nM

## C[C@]1(CCc2ccc3cc(Br)c(N)nc3c2)S[C@@H](n2ccc3c(N)ncnc32)[C@H](O)[C@@H]1O [Example 30]
[1]; [3]
  EC50: 0.3 nM
[2]; Homo sapiens, MCF7, 72 h
  EC50: 0.5 nM

## Cc1ncnc2c1ccn2[C@@H]1S[C@](C)(CCc2ccc3cc(Br)c(N)nc3c2)[C@@H](O)[C@H]1O [Example 32]
[1]; [3]
  EC50: 0.6 nM
[2]; Homo sapiens, MCF7, 72 h
  EC50: 5.6 nM

## C[C@]1(CCc2ccc3cc(Br)c(N)nc3c2)S[C@@H](n2ccc3c(Cl)ncnc32)[C@H](O)[C@@H]1O [Example 31, (2R,3S,4R,5R)-2-(2-(2-amino-3-bromoquinolin-7-yl)ethyl)-5-(4-chloro-7H-pyrrolo[2,3-d]pyrimidin-7-yl)-2-methyltetrahydrothiophene-3,4-diol]
[1]; [3]
  EC50: 0.7 nM
[2]; Homo sapiens, MCF7, 72 h
  EC50: 53.4 nM

## Nc1nc2cc(OC[C@H]3S[C@@H](n4ccc5c(N)ncnc54)[C@H](O)[C@@H]3O)ccc2cc1Br [Example 1, (2R,3S,4R,5R)-2-(((2-amino-3-bromoquinolin-7-yl)oxy)methyl)-5-(4-amino-7H-pyrrolo[2,3-d]pyrimidin-7-yl)tetrahydrothiophene-3,4-diol]
[1]; [4]
  EC50: 76.7 nM
[1]; [3]
  EC50: 0.3 nM
[2]; Homo sapiens, MCF7, 72 h
  EC50: 208 nM
